Source: PMC6104039 (Nature Communications, 2018)
Several values for one entry are separate records, joined by “and”; a condition that tells them apart may be missing. Identical values can stand only once.

How the values were obtained:
[1] = tested on: cerebellum; assay: Ceramide, SM and HexCer levels in cerebellum; type: in vivo, mice;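 for Cer 18:1/18:0 content of cerebellum: pmol per mg cerebellum tissue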;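 for Cer 18:1/24:0 content of cerebellum: pmol per mg cerebellum tissue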;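 for Cer 18:1/24:1 content of cerebellum: pmol per mg cerebellum tissue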;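 for Cer 18:2/18:0 content of cerebellum: pmol per mg cerebellum tissue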;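 for HexCer 18:1 content of cerebellum: pmol per mg cerebellum tissue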;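 for HexCer 20:1 content of cerebellum: pmol per mg cerebellum tissue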;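 for HexCer 22:1 content of cerebellum: pmol per mg cerebellum tissue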;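 for HexCer 24:0 content of cerebellum: pmol per mg cerebellum tissue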;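 for SM 32:1 content of cerebellum: pmol per mg cerebellum tissue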;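 for SM 34:2 content of cerebellum: pmol per mg cerebellum tissue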;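 for SM 36:1 content of cerebellum: pmol per mg cerebellum tissue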;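 for SM 36:2 content of cerebellum: pmol per mg cerebellum tissue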;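 for SM 40:1 content of cerebellum: pmol per mg cerebellum tissue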;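 for SM 40:2 content of cerebellum: pmol per mg cerebellum tissue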;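 for SM 42:1 content of cerebellum: pmol per mg cerebellum tissue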;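 for SM 42:2 content of cerebellum: pmol per mg cerebellum tissue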
Excerpt: Supplementary Figure 7. […] Ceramide, SM, and HexCer […]
levels in the cerebellum of vehicle- or P053-treated mice on a chow or HFD. N = 10 mice per group, except for chow vehicle group (n = 9). Mean ± SEM shown. No lipids were […]
comparisons. C18:0 HexCer was 45% lower in the P053-treated compared to the vehicle-treated HFD group (unadjusted P value = 0.02; adjusted value P = 0.16). Raw data for these figures is provided in Supplementary Data File 1.

[2] = tested on: C57BL6/J mice; assay: Body composition (EchoMRI) and fat pad weights in mice on chow or HFD; type: in vivo
Protocol: Male C57BL6/J mice were obtained from the Animal Resources Centre in Perth (WA, Australia). […] Treatment was commenced at the same time as mice were randomised to dietary groups. The experiments were approved by the UNSW animal care and ethics committee (ACEC 15/48B), and followed guidelines issued by the National Health and Medical Research Council of Australia.
Body composition (lean mass and fat mass) was determined by EchoMRI-900 Body Composition Analyser (EchoMRI Corporation Pte Ltd, Singapore) in accordance with the manufacturer’s instructions.

[3] = HFD + P053, individual mice, raw data for Supplementary Figure 7

Compound: C[C@@](N)(CO)CCc1ccc(OCc2ccc(Cl)c(Cl)c2)cc1 [P053, (S)-2-amino-4-(4-(3,4-dichlorobenzyloxy)phenyl)-2-methylbutan-1-ol]
- Cer 18:1/16:0 content of cerebellum [1, 3]: 2.762 and 1.437 and 5.744 and 2.262 and 3.928 and 1.548 and 1.88 and 7.07 and 1.652 and 5.347
- Cer 18:1/18:0 content of cerebellum [1, 3]: 128.546 and 82.2707 and 288.623 and 116.318 and 172.743 and 86.572 and 112.409 and 311.979 and 100.825 and 239.53
- Cer 18:1/20:0 content of cerebellum [1, 3]: 9.681 and 8.421 and 28.463 and 10.3564 and 18.7569 and 5.821 and 8.037 and 34.6254 and 7.548 and 24.475
- Cer 18:1/22:0 content of cerebellum [1, 3]: 15.9533 and 14.996 and 57.2919 and 21.4543 and 38.4094 and 10.5899 and 9.986 and 74.6469 and 9.154 and 46.3627
- Cer 18:1/24:0 content of cerebellum [1, 3]: 36.0277 and 35.1841 and 132.359 and 47.5021 and 88.9579 and 25.0017 and 22.1183 and 201.705 and 15.8687 and 131.28
- Cer 18:1/24:1 content of cerebellum [1, 3]: 97.7004 and 105.297 and 370.02 and 145.116 and 239.743 and 56.9618 and 60.5027 and 471.673 and 50.6294 and 252.902
- Cer 18:2/18:0 content of cerebellum [1, 3]: 5.2575 and 7.26 and 15.0915 and 8.468 and 10.666 and 4.461 and 4.156 and 21.6288 and 3.082 and 13.66
- HexCer 16:0 content of cerebellum [1, 3]: 8.934 and 17.284 and 8.364 and 13.8417 and 14.6417 and 7.1271 and 5.255 and 9.259 and 5.878 and 7.654
- HexCer 18:0 content of cerebellum [1, 3]: 106.702 and 382.139 and 122.466 and 271.752 and 258.221 and 146.382 and 115.813 and 146.018 and 61.4581 and 111.285
- HexCer 18:1 content of cerebellum [1, 3]: 19.0333 and 51.9273 and 16.2259 and 33.0148 and 32.5326 and 25.3913 and 23.9698 and 16.5527 and 15.5439 and 16.7312
- HexCer 20:0 content of cerebellum [1, 3]: 25.9921 and 81.8108 and 22.9498 and 52.8818 and 49.4884 and 37.7023 and 27.8092 and 23.4231 and 13.0014 and 19.1491
- HexCer 20:1 content of cerebellum [1, 3]: 2.413 and 5.45 and 1.502 and 2.714 and 3.093 and 3.36 and 3.204 and 0.8678 and 1.872 and 1.364
- HexCer 22:0 content of cerebellum [1, 3]: 505.659 and 1204.39 and 420.547 and 840.893 and 660.332 and 669.272 and 501.784 and 427.814 and 264.729 and 391.884
- HexCer 22:1 content of cerebellum [1, 3]: 79.5132 and 228.816 and 78.1356 and 158.552 and 150.676 and 92.9587 and 63.0534 and 66.2392 and 42.1951 and 49.044
- HexCer 24:0 content of cerebellum [1, 3]: 2652.92 and 5943.48 and 2280.7 and 4343.65 and 3299.69 and 3289.82 and 2658.72 and 2324.32 and 1408.65 and 2090.2
- HexCer 24:1 content of cerebellum [1, 3]: 5027.14 and 9363.75 and 4512.26 and 7271.57 and 6673.35 and 6052.94 and 5424.24 and 3829.42 and 3500.76 and 3500.55
- SM 32:1 content of cerebellum [1, 3]: 9.976 and 12.4114 and 9.047 and 10.2584 and 10.5601 and 10.6625 and 8.862 and 9.432 and 8.153 and 9.013
- SM 34:1 content of cerebellum [1, 3]: 133.106 and 161.415 and 90.4808 and 115.694 and 117.777 and 135.794 and 123.089 and 72.6388 and 98.8077 and 73.1632
- SM 34:2 content of cerebellum [1, 3]: 5.986 and 10.8404 and 8.948 and 9.3676 and 9.279 and 9.028 and 5.849 and 7.187 and 3.938 and 7.222
- SM 36:1 content of cerebellum [1, 3]: 437.801 and 529.096 and 247.962 and 355.417 and 343.012 and 490.447 and 544.072 and 175.073 and 405.398 and 201.504
- SM 36:2 content of cerebellum [1, 3]: 35.911 and 106.46 and 51.4739 and 67.513 and 67.8953 and 51.6927 and 57.9458 and 40.9288 and 32.7758 and 44.6146
- SM 38:1 content of cerebellum [1, 3]: 151.251 and 204.797 and 99.8821 and 137.133 and 146.282 and 182.882 and 197.347 and 79.7159 and 145.438 and 91.2461
- SM 38:2 content of cerebellum [1, 3]: 6.1474 and 11.1901 and 6.7471 and 8.325 and 8.851 and 10.1186 and 6.052 and 4.124 and 3.938 and 4.099
- SM 40:1 content of cerebellum [1, 3]: 183.889 and 372.913 and 177.074 and 235.958 and 281.655 and 224.359 and 174.632 and 162.333 and 129.812 and 151.975
- SM 40:2 content of cerebellum [1, 3]: 54.9137 and 116.436 and 59.8853 and 73.425 and 86.9536 and 64.465 and 34.4644 and 47.3579 and 33.4194 and 39.329
- SM 42:1 content of cerebellum [1, 3]: 210.79 and 460.407 and 223.848 and 278.666 and 328.3 and 236.404 and 186.283 and 198.576 and 131.683 and 195.129
- SM 42:2 content of cerebellum [1, 3]: 687.51 and 1423.11 and 718.618 and 898.145 and 1023.47 and 688.732 and 582.437 and 593.074 and 472.141 and 503.36
- C18:0 HexCer in cerebellum, lower than vehicle ([1]; HFD group, adjusted P = 0.16): 45%
- C18 ceramide or SM levels in cerebellum ([1]; chow or HFD): did not affect
- whole-body fat mass and weight of individual white adipose depots ([2]; HFD, 5 mg/kg, 4–6 weeks): significantly reduced
- reduction of the gain in fat pad mass on a HFD ([2]; both fat pads (inguinal and epididymal)): 44%
- gain in epididymal fat pad weight, HFD compared to chow ([2]; with P053 treatment): 0.29 g
- gain in inguinal fat pad weight, HFD compared to chow ([2]; with P053 treatment): 0.15 g
